Source: patent US9957273B2, “5-substituted 7- [4-(2-pyridyl)phenylmethylamino] -3-isopropylpyrazolo4,3-D]pyrimidine derivatives, use thereof as medicaments, and pharmaceutical compositions” (USTAV EXPERIMENTALNI BOTANIKY AV CR, V.V.I., priority 2015, dated 2018)

Assays:
[1] = system: PANC-1 (pancreatic carcinoma); assay: MTT cytotoxicity assay, solid cancer cell line PANC-1; assay type: cell-based; details: Homo sapiens, PANC-1, 72 h, three days
Experimental: (§1) The compounds were assayed using the following cell lines: G361 (malignant melanoma), MCF7 (breast adenocarcinoma), PLC/PRF/5 (liver hepatoma), PANC-1 (pancreatic carcinoma) and HCT116 (colon carcinoma). All cell lines were grown in DMEM medium supplemented with fetal bovine serum and L-glutamine and maintained at 37° C. in a humidified atmosphere with 5% CO2. For cytotoxicity assays, 4000-10000 cells were seeded into each well of a 96 well plate, allowed to stabilize for at least 16 h and then tested compounds were added at various concentrations ranging from 100 to 0.01 μM in triplicates. After three days, MTT solution (5 mg/ml; Sigma, St. Louis, USA) was added to cells and medium was replaced with DMSO after five hours. The absorbance was measured at 620 nm by employing a microplate reader. MTT assays were repeated 3 times for each drug application and untreated cells were used as reference.

[2] = system: HUVECs (human umbilical vein endothelial cells); assay: HUVEC proliferation assay (crystal violet); assay type: cell-based; details: Homo sapiens, HUVEC, 72 h, read-out: Inhibition of proliferation (EC50)
Experimental: (§2) To verify that novel compounds have anti-vascularisation properties, we analyzed their influence on the proliferation and migration of HUVECs. HUVECs (human umbilical vein endothelial cells) were purchased from Promocell (Heidelberg, Germany) and cultured in endothelial cell growth medium (ECGM, Promocell, Heidelberg, Germany) containing 10% FCS (Biochrom, Berlin, Germany). Experiments were performed using cells at passage 3.
For proliferation assay, 1.5×10^3 HUVECs were cultured for 24 h. Afterwards, cells were either left untreated or treated with novel compounds for 72 h. Proliferation assay was performed using crystal violet as described previously (Koltermann et al. 2007, Cell Mol. Life Sci. 64:1715-1722).

[3] = system: PLC/PRF/5 (liver hepatoma); assay: MTT cytotoxicity assay, solid cancer cell line PLC/PRF/5; assay type: cell-based; details: Homo sapiens, PLC-PRF-5, 72 h, three days
Experimental: as §1

[4] = system: G361 (malignant melanoma); assay: MTT cytotoxicity assay, solid cancer cell line G361; assay type: cell-based; details: Homo sapiens, G-361, 72 h, three days
Experimental: as §1

[5] = system: MV4;11 (acute myelocytic leukemia); assay: MTT cytotoxicity assay, leukemic cell line MV4;11; assay type: cell-based; details: Homo sapiens, MV4-11, 72 h, three days
Text: (§3) Cytotoxicity of the compounds is the major property determining their antileukemic efficacy in vivo. One of the parameters used, as the basis for cytotoxicity assays, is the metabolic activity of viable cells. For example, a microtiter assay, which uses (3-(4,5-dimethylthiazol-2-yl)-2,5-diphenyltetrazolium bromide (MTT), is widely used to quantitate cell proliferation and cytotoxicity. This assay is widely used in drug screening programs and in chemosensitivity testing. Because only metabolically active living cells reduce MTT to correspond purple formazan dye, these assays detect viable cells exclusively. The quantity of reduced MTT corresponds to the number of vital cells in the culture.
as §1, with “following leukemic” for “following”, “K562 (human chronic myelogenous leukaemia), HL60 (human promyelocytic leukaemia), CEM (human lymphoblastoid leukaemia), THP1 (human monocytic cell line), MV4; 11 (acute myelocytic leukemia).” for “G361 (malignant melanoma), MCF7 (breast adenocarcinoma), PLC/PRF/5 (liver hepatoma), PANC-1 (pancreatic carcinoma) and HCT116 (colon carcinoma).”, “RPMI” for “DMEM”, “2000-5000” for “4000-10000”, “of” for “of a”, “8” for “16”

CDK5/p35 = target: T1, CDK5/p35 (Homo sapiens, UniProt Q00535); assay: CDK5/p35 kinase inhibition (33P-ATP, histone H1); assay type: biochemical; details: 0.15 μM ATP
T1 construct: purchased ProQinase GmbH
Experimental: CDK2/Cyclin E kinase was produced in Sf9 insect cells via baculoviral infection and purified on a NiNTA column (Qiagen). […] CDK5/p35 was purchased from ProQinase GmbH.
(§4) The reactions were stopped by adding 5 μL of 3% aq H3PO4. Aliquots were spotted onto P-81 phosphocellulose (Whatman), washed 3× with 0.5% aq H3PO4 and finally air-dried.

[6] = system: MCF7 (breast adenocarcinoma); assay: MTT cytotoxicity assay, solid cancer cell line MCF7; assay type: cell-based; details: Homo sapiens, MCF7, 72 h, three days
Experimental: as §1

[7] = system: CEM (human lymphoblastoid leukaemia); assay: MTT cytotoxicity assay, leukemic cell line CEM; assay type: cell-based; details: Homo sapiens, 72 h, three days
Text: as §3
as §1, with “following leukemic” for “following”, “K562 (human chronic myelogenous leukaemia), HL60 (human promyelocytic leukaemia), CEM (human lymphoblastoid leukaemia), THP1 (human monocytic cell line), MV4; 11 (acute myelocytic leukemia).” for “G361 (malignant melanoma), MCF7 (breast adenocarcinoma), PLC/PRF/5 (liver hepatoma), PANC-1 (pancreatic carcinoma) and HCT116 (colon carcinoma).”, “RPMI” for “DMEM”, “2000-5000” for “4000-10000”, “of” for “of a”, “8” for “16”

[8] = system: caspases 3 and 7 in K562 cells; assay: Caspase-3/7 activity assay in K562 cells; assay type: cell-based, human; details: 24 hours, FIG. 2
Experimental: Measurement of proapoptotic properties of new compounds was based on quantification of enzymatic activities of caspases-3/7. Activity of cellular caspase-3/7 was measured according to Carrasco et al., 2003, BioTechniques, 34(5): 1064-67. Briefly, the cells were incubated in a 96-well plate overnight. Next day, the compounds in appropriate concentrations were added and cells were incubated for 24 hours. After incubation, 3× caspase-3/7 assay buffer (150 mM HEPES pH 7.4, 450 mM NaCl, 150 mM KCl, 30 mM MgCl2, 1.2 mM EGTA, 1.5% Nonidet P40, 0.3% CHAPS, 30% sucrose, 30 mM DTT, 3 mM PMSF) with 150 μM Ac-DEVD-AMC as a substrate (Sigma-Aldrich) was added to the wells and plates were incubated at 37° C. […]. The caspase activity was measured using Fluoroskan Ascent microplate reader (Labsystems) at 346 nm/442 nm (excitation/emission).

[9] = system: K562 (human chronic myelogenous leukaemia); assay: MTT cytotoxicity assay, leukemic cell line K562; assay type: cell-based; details: Homo sapiens, K562, 72 h, three days
Text: as §3
as §1, with “following leukemic” for “following”, “K562 (human chronic myelogenous leukaemia), HL60 (human promyelocytic leukaemia), CEM (human lymphoblastoid leukaemia), THP1 (human monocytic cell line), MV4; 11 (acute myelocytic leukemia).” for “G361 (malignant melanoma), MCF7 (breast adenocarcinoma), PLC/PRF/5 (liver hepatoma), PANC-1 (pancreatic carcinoma) and HCT116 (colon carcinoma).”, “RPMI” for “DMEM”, “2000-5000” for “4000-10000”, “of” for “of a”, “8” for “16”

HCT116 (colon carcinoma) = assay: MTT cytotoxicity assay, solid cancer cell line HCT116; assay type: cell-based; details: Homo sapiens, HCT-116, 72 h, three days
Experimental: as §1

[10] = system: HL60 (human promyelocytic leukaemia); assay: MTT cytotoxicity assay, leukemic cell line HL60; assay type: cell-based; details: Homo sapiens, HL-60, 72 h, three days
Text: as §3
as §1, with “following leukemic” for “following”, “K562 (human chronic myelogenous leukaemia), HL60 (human promyelocytic leukaemia), CEM (human lymphoblastoid leukaemia), THP1 (human monocytic cell line), MV4; 11 (acute myelocytic leukemia).” for “G361 (malignant melanoma), MCF7 (breast adenocarcinoma), PLC/PRF/5 (liver hepatoma), PANC-1 (pancreatic carcinoma) and HCT116 (colon carcinoma).”, “RPMI” for “DMEM”, “2000-5000” for “4000-10000”, “of” for “of a”, “8” for “16”

[11] = system: THP1 (human monocytic cell line); assay: MTT cytotoxicity assay, leukemic cell line THP1; assay type: cell-based; details: Homo sapiens, THP-1, 72 h, three days
Text: as §3
as §1, with “following leukemic” for “following”, “K562 (human chronic myelogenous leukaemia), HL60 (human promyelocytic leukaemia), CEM (human lymphoblastoid leukaemia), THP1 (human monocytic cell line), MV4; 11 (acute myelocytic leukemia).” for “G361 (malignant melanoma), MCF7 (breast adenocarcinoma), PLC/PRF/5 (liver hepatoma), PANC-1 (pancreatic carcinoma) and HCT116 (colon carcinoma).”, “RPMI” for “DMEM”, “2000-5000” for “4000-10000”, “of” for “of a”, “8” for “16”

[12] = system: HUVECs (human umbilical vein endothelial cells); assay: HUVEC migration (scratch) assay; assay type: cell-based; details: 16 h, read-out: Inhibition of migration (EC50)
Experimental: as §2
For migration assay, confluent HUVECs were scratched with a pipette tip and immediately treated with either starvation medium M199 (serum-free, negative control; PAN Biotech) or full endothelial cell growth medium (positive control). After 16 h, cells were fixed with 3% formaldehyde and images were taken using the TILLvisON system (Lochham, Germany) connected to an Axiovert 200 microscope (Zeiss, Germany). Evaluation of pictures was made by S.CO LifeScience (Garching, Germany). Migration was quantified as the ratio of the area covered with cells and the area of the cell free wound.

[13] = system: breast carcinoma cell line MCF7; assay: Cell cycle profile by BrdU/propidium iodide flow cytometry; assay type: cell-based; details: asynchronously growing MCF7, 24 h, FIG. 1
Experimental: Sub-confluent cells were treated with test compounds at different concentrations for 24 h. The cultures were pulse-labeled with […] 5-bromo-20-deoxyuridine (BrdU) for 30 min at 37° C. prior to harvesting. The cells were then washed in PBS, fixed with 70% ethanol, and denatured in 2 M HCl. Following neutralization, the cells were stained with anti-BrdU fluorescein-labeled antibodies, washed, stained with propidium iodide and analyzed by flow cytometry using a 488 nm laser

CDK2/Cyclin E = target: T2, CDK2/Cyclin E (Homo sapiens, UniProt P24941); assay: CDK2/Cyclin E kinase inhibition (33P-ATP, histone H1); assay type: biochemical; details: 15 μM ATP
T2 construct: made in house; host or cells: Sf9 insect cells (baculovirus)
Experimental: CDK2/Cyclin E kinase was produced in Sf9 insect cells via baculoviral infection and purified on a NiNTA column (Qiagen). The kinase reactions were assayed with 1 mg/mL histone H1 in the presence of 15 μM ATP, 0.05 μCi [γ-^33P]ATP and of the test compound in a final volume of 10 μL, all in a reaction buffer (60 mM HEPES-NaOH, pH 7.5, 3 mM MgCl2, 3 mM MnCl2, 3 μM Na-orthovanadate, 1.2 mM DTT, 2.5 μg/50 μl PEG20.000). CDK5/p35 was purchased from ProQinase GmbH. The kinase reactions were assayed with 1 mg/mL histone H1 in the presence of 0.15 μM ATP, 0.05 μCi [γ-^33P]ATP and of the test compound in a final volume of 10 μL, all in a reaction buffer (60 mM HEPES-NaOH, pH 7.5, 3 mM MgCl2, 3 mM MnCl2, 3 μM Na-orthovanadate, 1.2 mM DTT, 2.5 μg/50 μl PEG20.000).
as §4

T1 sequence (Q00535 whole entry): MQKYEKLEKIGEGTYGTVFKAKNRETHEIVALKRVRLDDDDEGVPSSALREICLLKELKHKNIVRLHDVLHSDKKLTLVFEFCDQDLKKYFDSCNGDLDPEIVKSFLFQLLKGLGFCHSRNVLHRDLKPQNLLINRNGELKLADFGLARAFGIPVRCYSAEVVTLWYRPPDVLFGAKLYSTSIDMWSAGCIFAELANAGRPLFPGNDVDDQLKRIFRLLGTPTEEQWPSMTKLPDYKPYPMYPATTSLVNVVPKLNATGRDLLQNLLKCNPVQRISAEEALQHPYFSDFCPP
T1 sequence (Q15078 whole entry partner): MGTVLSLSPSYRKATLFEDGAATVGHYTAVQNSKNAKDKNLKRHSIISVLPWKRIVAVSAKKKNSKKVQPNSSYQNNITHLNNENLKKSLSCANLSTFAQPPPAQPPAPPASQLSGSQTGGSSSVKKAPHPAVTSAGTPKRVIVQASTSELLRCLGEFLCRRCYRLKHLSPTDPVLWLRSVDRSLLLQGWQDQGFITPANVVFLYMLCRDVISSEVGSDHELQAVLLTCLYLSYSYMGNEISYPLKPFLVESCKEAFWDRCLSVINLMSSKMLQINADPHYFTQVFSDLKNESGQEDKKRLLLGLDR

| SMILES | IC50 (CDK5/p35) [µM] | IC50 (CDK2/Cyclin E) [µM] | IC50 [1] [µM] | EC50 [2] [nM] | IC50 [3] [µM] | IC50 [4] [µM] | IC50 [5] [µM] | IC50 [6] [µM] | IC50 [7] [µM] | caspase-3/7 activity in K562 cells [8] | IC50 [9] [µM] | IC50 (HCT116 (colon carcinoma)) [µM] | IC50 [10] [µM] | IC50 [11] [µM] | EC50 [12] [nM] | effect on the cell cycle of MCF7 [13] |
| --- | --- | --- | --- | --- | --- | --- | --- | --- | --- | --- | --- | --- | --- | --- | --- | --- |
| CC(C)c1[nH]nc2c(NCc3ccc(-c4ccccn4)cc3)nc(NCC(C)(C)O)nc12 [Compound 33] | 0.001 |  | 0.01 | 14 | 0.05 | 0.03 | 0.07 | 0.02 | 0.01 | potent dose-dependent activation of the caspases in nanomolar concentrations | 0.03 | 0.04 | 0.02 | 0.01 | 22 |  |
| CC(C)c1[nH]nc2c(NCc3ccc(-c4ccccn4)cc3)nc(NC3CCCCC3N)nc12 (stereo not shown) [Compound 65] | 0.048 | 0.023 | 0.02 | 5 | 0.05 | 0.04 | 0.38 | 0.06 | 0.14 |  | 0.3 | 0.08 | 0.22 | 0.11 | 77 |  |

Second part, led by results:

| IC50 (CDK5/p35) [µM] | IC50 (CDK2/Cyclin E) [µM] | SMILES | IC50 [1] [µM] | EC50 [2] [nM] | IC50 [3] [µM] | IC50 [4] [µM] | IC50 [5] [µM] | IC50 [6] [µM] | IC50 [7] [µM] | caspase-3/7 activity in K562 cells [8] | IC50 [9] [µM] | IC50 (HCT116 (colon carcinoma)) [µM] | IC50 [10] [µM] | IC50 [11] [µM] | EC50 [12] [nM] | effect on the cell cycle of MCF7 [13] |
| --- | --- | --- | --- | --- | --- | --- | --- | --- | --- | --- | --- | --- | --- | --- | --- | --- |
| 2.14 |  | CC(C)c1[nH]nc2c(NCc3ccc(-c4ccccn4)cc3)nc(NCCN(C)C)nc12 [Compound 47] | 0.2 | 181 | 0.24 | 0.47 | 0.12 | 0.23 | 0.07 |  | 0.13 | 0.34 | 0.09 | 0.06 |  | potently arrested cells in S, G2 and M phases |
|  | 0.054 | CC[C@H](CO)Nc1nc(NCc2ccc(-c3ccccn3)cc2)c2n[nH]c(C(C)C)c2n1 [Compound 83] | 0.02 | 34 | 0.02 | 0.04 | 0.07 | 0.05 | 0.06 |  |  | 0.03 | 0.02 | 0.01 | 39 |  |
|  | 0.098 | CC[C@@H](CO)Nc1nc(NCc2ccc(-c3ccccn3)cc2)c2n[nH]c(C(C)C)c2n1 [Compound 84] |  |  |  |  |  |  |  |  |  |  |  |  |  | potently arrested cells in S, G2 and M phases |
